In patent US20040156854A1, “Methods for the identification, assessment, and treatment of patients with proteasome inhibition therapy” (priority 2002, published 2004):

Tests used:
[1] = test system: relapsed/refractory multiple myeloma; test: Open-label Phase II study of bortezomib in relapsed, refractory myeloma: IRC confirmed response (Blade criteria); format: in vivo, human
Experimental: An Open-Label Phase II Study of Bortezomib in Patients with Myeloma Who Have Relapsed Following Front-Line Therapy and are Refractory to their Most Recent Therapy
(§1) A multicenter, open-label, non-randomized Phase 2 trial was conducted, wherein enrolled were patients with relapsed myeloma that was refractory to therapy. Patients were treated with 1.3 mg of bortezomib per square meter of body surface area, twice weekly for two weeks, followed by one week without treatment, for up to eight cycles (24 weeks).
(§2) Statistical analysis focused on the need to estimate response rates within specified limits of accuracy in order to determine if either of the two dose levels 1.0 or 1.3 mg/m^2/dose alone or in combination with dexamethasone are sufficiently efficacious to warrant further clinical study. This study was noncomparative in nature; therefore efficacy comparisons between the two doses of bortezomib were not performed. In addition, this study provided safety data that helped to characterize the potential toxicity of treatment at the two evaluated dose levels for up to eight cycles of therapy.
A formal statistical analysis plan was developed and finalized prior to database lock. The primary efficacy analyses were performed on the intent-to-treat (ITT) population. The primary efficacy analysis were performed on the rates of responders, where a responder was defined as a CR, PR, or MR using the criteria prospectively established in Table C. Two-sided 90% confidence limits on proportions of responders in each dose group were established, corresponding to a 95% one-sided lower limit.
Based on the criteria reported by Kraut et al., J. Clin. Oncol. 16(2): 589-592 (1998) and Blade et al., Br. J. Haematol. 102(5): 1115-1123 (1998). In patients with CR, bone marrow was analyzed using PCR for verification of CR at the molecular level.
The Independent Review Committee (IRC) evaluation of confirmed response to treatment with bortezomib alone is provided in Table D; further categorization of response for those patients who experienced partial remission is provided in Table E. This independent panel panel of three medical oncologists reviewed all data for 193 evaluable patients in the trial and assigned response using Blade criteria (Table C). […] An additional 46 (24%) of patients had evidence for stable disease (NC, no change) in response to bortezomib alone, which reflects an improvement in status for these patients who were progressing at the time of study entry. Based on the IRC assessment, 38 (20%) of the 193 patients had progressive disease and an additional 42 patients (22%) were considered not evaluable for response by the IRC. […] See Richardson PG, et al., New Eng. J. Med.; 348: 2609-17 (2003).

[2] = design: species or system human; conditions: in vivo
Experimental: as §1, §2
Over 80% of the 78 patients completed 2 or more cycles of treatment, 62% completed 4 or more cycles, and 27% completed 8 cycles.

[3] = test system: OVCAR-3 and RPMI8226 resistant sub-clones; test: Bortezomib resistant tumor cell lines generated by repeated dosing: resistance to bortezomib; format: cell-based; conditions: sub-clones selected after dosing with 3-5 times the LD50; vs parental lines
Experimental: In order to better understand the specific mechanism(s) by which proteasome inhibitors exert their apoptotic effects, as well as to elucidate mechanisms by which those effects may be subverted, bortezomib resistant tumor cell lines were generated. […] The drug was then removed and surviving cells were allowed to recover for 24 to 72 hours. This process was then repeated for multiple rounds with the bortezomib dose doubled each time. After cells had been dosed with 3-5 times the LD50, several individual cell lines were sub-cloned from single cell colonies. […] This strategy was applied to both ovarian tumor cell lines (OVCAR-3) and myeloma tumor cell lines (RPMI8226) and multiple sub-clones were characterized. The resistant cell lines were then subject to gene expression profiling using the Affymetrix U133 microarray. A comparison of genes differentially expressed in sensitive parental (S) versus resistant sub-clones (R) highlighted several genes that were also identified in analysis of sensitive and resistant myeloma biopsies. The number identified in Table 8 corresponds to the marker number identification in Table 1. Such results not only highlight a potential relationship between expression of these genes and bortezomib sensitivity, but also support the validity of methods used to define response genes in clinical samples.

[4] = test system: human tumor xenograft models; conditions: cited from earlier work
[5] = IRC assessment, bortezomib alone, N = 193
[6] = IRC confirmed, bortezomib alone, N = 193

## CC(C)C[C@H](NC(=O)[C@H](Cc1ccccc1)NC(=O)c1cnccn1)B(O)O [bortezomib, N-pyrazinecarbonyl-L-phenylalanine-L-leucineboronic acid]
[1]; 202 patients enrolled, PS-341 alone, prior to added dexamethasone
  CR+PR rate: 27%
[1]; 202 patients enrolled, prior to any patients receiving added dexamethasone
  overall response rate to PS-341 alone: 35%
[1]; [5]
  Not Evaluable for response, number of patients: 42 patients
  Not Evaluable for response, percent of patients: 22%
[1]; IRC confirmed, bortezomib alone, 1.3 mg/m2 twice weekly, N = 193
  Complete + Partial + Minor Responses, number of patients: 67 patients
[1]; [6]
  Complete + Near Complete Remissions (NCR), number of patients: 19 patients
  Complete + Near Complete Remissions (NCR), percent of patients: 10%
  Complete + Partial + Minor Responses, percent of patients: 35%
  Complete + Partial Remissions, number of patients: 53 patients
  Complete + Partial Remissions, percent of patients: 27%
  Complete Remission (CR), number of patients: 19 patients
  Complete Remission (CR), percent of patients: 4%
  Minor Response (MR), number of patients: 14 patients
  Minor Response (MR), percent of patients: 5%
  No Change (stable disease), number of patients: 46 patients
  No Change (stable disease), percent of patients: 27%
  Partial Remission (PR), number of patients: 34 patients
  Partial Remission (PR), percent of patients: 23%
  Progressive Disease, number of patients: 38 patients
  Progressive Disease, percent of patients: 20%
[2]
  tolerability of the dose: well tolerated
[3]
  resistance to bortezomib of resistant sub-clones: 5-10 fold
[4]
  antitumor activity: demonstrated antitumor activity
